Test results reported in US20020104106A1, “Non-mammalian transgenic animal model for cellular proliferative diseases” (priority 1999, published 2002).

Test system: tumor fly model
Assay: Screening assay: extracts fed to v-myb tumor flies, delay of tumor progression
Assay type: in vivo, Drosophila melanogaster
Conditions: extract concentration fed to the larva/fly that delayed tumor progression by 20% or more
Protocol: In the screening methods of the subject invention, a quantity of a candidate agent is generally orally administered to the fly. Following oral administration, the affect of the candidate agent on the metastatic tumors (or appearance thereof) of the fly is determined, typically by comparison with a control (i.e. a transgenic fly to which the candidate agent has not been administered). The affect of the candidate agent is determined by determining whether one or more of the phenotypic characteristics of the neoplastic condition are exacerbated or ameliorated in the test fly as compared to the control fly, where characteristics that are monitored include tumor growth, tumor metastasis, and the like. The candidate agent is generally orally administered to the fly by mixing the agent into the fly nutrient medium, e.g. water, aqueous solution with additional nutrient agents, etc., and placing the medium in the presence of the fly, (either the larva or adult fly, usually the adult fly) such that the fly feeds on the medium. Generally a plurality of assay mixtures are run in parallel with different agent concentrations to obtain a differential response to the various concentrations of candidate agent. Typically, one of these concentrations serves as a negative control, i.e. no compound. […]

## CC(C)=CCC/C(C)=C/C=C/C(C)=C/C=C/C(C)=C/C=C/C=C(C)/C=C/C=C(C)/C=C/C=C(\C)CCC=C(C)C [Lycopene]
  Positive antitumor activity dose range: .01%-100%
